Test results taken from PubChem BioAssay (NCI).
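96-well plates; 48 h exposure; 5 concentrations. Endpoints by linear interpolation between flanking doses. Not reached: highest tested concentration assigned. The concentration for full growth arrest is given as TGI.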

Tests used:
Experiment in all cases: NCI tumour cell line growth inhibition, 48 h
[1] = tested on: SF-539 CNS
[2] = tested on: SK-MEL-28 melanoma
[3] = tested on: NCI-H226 lung
[4] = tested on: HOP-92 NSCLC
[5] = tested on: KM20L2 colon
[6] = tested on: U251 CNS
[7] = tested on: M14 melanoma
[8] = tested on: NCI-H460 lung
[9] = tested on: HL-60(TB) leukemia
[10] = tested on: SN12C renal
[11] = tested on: UACC-257 melanoma
[12] = tested on: EKVX NSCLC
[13] = tested on: DLD-1 colon
[14] = tested on: OVCAR-4 ovarian
[15] = tested on: UO-31 renal
[16] = tested on: HT29 colon
[17] = tested on: OVCAR-5 ovarian
[18] = tested on: LOX IMVI melanoma
[19] = tested on: 786-0 renal
[20] = tested on: SF-295 CNS
[21] = tested on: OVCAR-3 ovarian
[22] = tested on: HCT-116 colon
[23] = tested on: SNB-75 CNS
[24] = tested on: SK-MEL-2 melanoma
[25] = tested on: CCRF-CEM leukemia
[26] = tested on: A549 NSCLC
[27] = tested on: M19-MEL melanoma
[28] = tested on: HOP-18 NSCLC
[29] = tested on: CAKI-1 renal
[30] = tested on: IGROV1 ovarian
[31] = tested on: MOLT-4 leukemia
[32] = tested on: SK-OV-3 ovarian
[33] = tested on: LXFL 529 NSCLC
[34] = tested on: ACHN renal
[35] = tested on: COLO 205 colon
[36] = tested on: XF 498 CNS
[37] = tested on: K-562 leukemia
[38] = tested on: TK-10 renal
[39] = tested on: SNB-78 CNS
[40] = tested on: DU-145 prostate
[41] = tested on: SF-268 CNS
[42] = tested on: RXF 393 renal
[43] = tested on: SNB-19 CNS
[44] = tested on: HCT-15 colon
[45] = tested on: HCC-2998 colon
[46] = tested on: OVCAR-8 ovarian
[47] = tested on: NCI-H522 lung
[48] = tested on: RPMI-8226 leukemia
[49] = tested on: NCI-H23 lung
[50] = tested on: SW-620 colon
[51] = tested on: SK-MEL-5 melanoma
[52] = tested on: SR leukemia
[53] = tested on: A498 renal
[54] = tested on: KM12 colon
[55] = tested on: MALME-3M melanoma
[56] = tested on: HOP-62 NSCLC

Compound: C=C(C[N+](C)(C)C)N/N=C/c1oc(-c2ccc(OC)c(OC)c2)c(-c2ccc(OC)c(OC)c2)c1[N+](=O)[O-]
- TGI [1]: 31.6 µM
- TGI [2]: 33.8 µM
- TGI [3]: 66.3 µM
- TGI [4]: 96.2 µM
- TGI [5]: > 100 µM
- TGI [6]: 40.2 µM
- TGI [7]: 48.2 µM
- TGI [8]: 40.2 µM
- TGI [9]: 33.9 µM
- TGI [10]: 32.6 µM
- TGI [11]: 46.6 µM
- TGI [12]: > 100 µM
- TGI [13]: 46.9 µM
- TGI [14]: 38 µM
- TGI [15]: 33.7 µM
- TGI [16]: 32.1 µM
- TGI [17]: 40.3 µM
- TGI [18]: 28.9 µM
- TGI [19]: 32.9 µM
- TGI [20]: 39.6 µM
- TGI [21]: 71.6 µM
- TGI [22]: 32.5 µM
- TGI [23]: 78.2 µM
- TGI [24]: 31.9 µM
- TGI [25]: 50.5 µM
- TGI [26]: > 100 µM
- TGI [27]: 29.3 µM
- TGI [28]: 60.4 µM
- TGI [29]: > 100 µM
- TGI [30]: 34.3 µM
- TGI [31]: 83.6 µM
- TGI [32]: 64.4 µM
- TGI [33]: 52.4 µM
- TGI [34]: 31.5 µM
- TGI [35]: 33.6 µM
- TGI [36]: 56.6 µM
- TGI [37]: 52.5 µM
- TGI [38]: 50.6 µM
- TGI [39]: > 100 µM
- TGI [40]: > 100 µM
- TGI [41]: 38.7 µM
- TGI [42]: 30.1 µM
- TGI [43]: > 100 µM
- TGI [44]: 36.8 µM
- TGI [45]: 35.5 µM
- TGI [46]: 31.4 µM
- TGI [47]: 45.3 µM
- TGI [48]: 41.4 µM
- TGI [49]: 44.7 µM
- TGI [50]: 34.5 µM
- TGI [51]: 31.7 µM
- TGI [52]: 23.9 µM
- TGI [53]: 82.3 µM
- TGI [54]: 31.5 µM

Compound: COc1ccc2[nH]c3c(C)c4cc[n+](COC(=O)c5ccccc5)cc4c(C)c3c2c1
- TGI [55]: 7.06 µM
- TGI [9]: 4.13 µM
- TGI [15]: 5.68 µM
- TGI [20]: 1.65 µM
- TGI [21]: 5.27 µM
- TGI [25]: 1.75 µM
- TGI [28]: 0.312 µM
- TGI [29]: > 100 µM
- TGI [31]: 0.584 µM
- TGI [32]: 5.78 µM
- TGI [34]: 5.97 µM
- TGI [56]: 24 µM
- TGI [36]: 5.67 µM
- TGI [37]: 1.46 µM
- TGI [38]: 4.4 µM
- TGI [41]: 3.81 µM
- TGI [43]: 6.85 µM
- TGI [48]: 1.7 µM
- TGI [52]: 0.213 µM
